In patent US7871978B2, “Bone tropic peptides” (University of Virginia Patent Foundation, priority 2004, dated 2011):

What was measured:
bone and bone marrow = experiment: In vivo biopanning with 12-mer peptide phage display library; parameters: species or system BALB/c mice; details: for PERCENT FREQUENCY: phage eluted from bone and bone marrow; for PHAGE SEQUENCE FREQUENCY (number of times the sequence was found in a group of plaques): phage eluted from bone and bone marrow after repeated rounds
Source text: The Ph.D.-12 Phage Display Peptide Library Kit (New England Biolabs, Beverly, Mass.) used in this study is based on a combinatorial library of random peptide 12-mers fused to a minor coat protein (pIII). […] The peptide is followed by a short spacer of four amino acid residues, the first three residues of which are glycine and the fourth of which is serine, and then the wild-type III sequence. The library consists of approximately 2.7×10^9 electroporated sequences, amplified once to yield approximately 55 copies of each sequence.
For in vivo biopanning, BALB/c mice 8 weeks of age were injected 3.4×10^10 pfu of phage into the heart. The animals were euthanized after 5 minutes, and the tissues (bone, bone marrow, kidney, liver, and spleen) were collected for analysis. The bound phage was eluted according the manufacturer's instructions. The eluted phage was titered, amplified, purified, and injected again at the same concentration.
The frequency of each peptide in bone and bone marrow was compared with its location in other tissues such as liver, kidney, lung, spleen, and brain. Thirteen unique peptide sequences eluted from bone and marrow were identified were identified by sequencing phage DNA. The peptides were synthesized using the polystyrene solid support on a Protein Technologies Symphony Multiple Channel Synthesizer.

[1] = system: bovine aortic endothelial cells; experiment: Effect of peptides on adherent bovine aortic endothelial cells on fibronectin or collagen; type: cell-based; details: for Effect on adherent BAEC (Experiment 1): 0.1M biotinylated peptide, 1 hour, cells adhered four hours on fibronectin or collagen
Method: Peptides from the phage display project were added to bovine aortic endothelial cells in culture. The endothelial cells had adhered to a surface coated with collagen or with fibronectin.
Experiment 1: Bovine aortic endothelial cells were plated on glass slides that were coated either fibronectin or collagen. The cell density was 5,000 cells/well. After the cells adhered for four hours, 0.1M of biotinylated peptide was added to each well. The following peptides were used: L1, L2, L5, L6, L7, L12, L13, L14, L19, R1, R3, and R8.
To perform this experiment, the media was removed and the cells were rinsed with 1×PBS plus 1% BSA three times. Peptides were diluted in 1×PBS plus 1% BSA, added to cells and incubated for 1 hour. The cells were rinsed three times with 1% BSA in PBS, and fixed with 2% parafomaldehyde. Aldehyde groups were blocked with 0.2 M HCl-glycine in PBS, the cells were rinsed three times with 1% BSA in PBS and ExtrAvidin-FITC (1:200 dilution) was added and incubated overnight at 4° C. The cells were rinsed three times with 1% BSA in PBS. The chambers and the gasket were removed from each slide, Vectashield was added, covered and viewed on a Nikon microscope. Images were acquired using a Coolsnap digital camera and Metavue software. […]
Experiment 3: The cells were adherent for about 6 hours and peptides at various concentrations were added to the cells. The concentrations of each of the peptides used in this experiment were: 0.1M, 0.01M, 0.001M and 0.0001M biotinylated peptide. The following peptides were tested: L1, L5, L6, L7, L13, L14, R1, R3, R8, DIP1 and PBS control (SEQ ID NOs:1, 3, 4, 5, 8, 9, 11, 13, 14, and 29).

C4-2 cells = experiment: Prostate cancer cell adhesion to BMEC: C4-2; type: cell-based; details: FIG. 8; preliminary results
Method: (§1) FIG. 8 is a graphic representation of the effects of various peptides on altering cellular adhesion to BMEC cells in vitro. LNCaP cells were compared directly to C4-2 cells for the ability of specific phage-derived peptides to alter cellular adhesion to BMEC cells in vitro. Adhesion was measured at […]. C=control (no peptide). The ordinate represents percent of acid precipitable counts bound and the abscissa indicated the cells treated and the peptides used.
(§2) The phage-derived bone-targeting peptides isolated by biopanning were tested for their ability to alter the adhesion of prostate cancer cells to a human bone marrow endothelial cell line (see FIG. 8). In this assay, LNCaP cells were compared directly to the more metastatic, bone colonizing derivative, C4-2.

LNCaP cells = experiment: Prostate cancer cell adhesion to BMEC: LNCaP; type: cell-based; details: FIG. 8; preliminary results
Method: as §1, §2

[2] = system: Unicortical femoral defects; experiment: Peptide-mediated osteogenesis in cortical bone defects (Example 8); type: in vivo, Fisher 344 rats; details: 100 mM peptide in gelfoam, two weeks postoperatively; for Effectiveness at stimulating osteogenesis and cortical bone repair: versus gelfoam+PBS
Method: In an in vivo study, all 13 peptides at a concentration of 100 mM were tested for their ability to potentiate osteogenesis. A gelfoam cylinder 1.5 mm in diameter 2 mm in length was used as carrier for the peptides. Unicortical femoral defects 1.5 mm in diameter were created bilaterally in Fisher 344 rats; the left femoral defect was filled with gelfoam+PBS (Control), and the right femur with gelfoam+peptide. The samples were harvested and examined two weeks postoperatively. To examine the effect of peptide concentration on cortical bone regeneration, peptide L7 (SEQ ID NO:5) was used at 1, 5, and 20 mM. […] The time course of cortical bone repair with 20 mM L7 was examined at 5, 10, 15, and 20 days.

prostate cancer cells = experiment: Chimeric tumors of killer-gene mesenchymal cells and prostate cancer cells treated with prodrug; type: in vivo, immune deficient rats
Method: Further experiments were carried out exploiting the phenomenon of mesenchymal cell homing to skeletal tissues. Cells transduced with thymidine kinase or cytidine deaminase, killer genes that can be expressed under the influence of a prodrug, lead to a cell kill effect on neighboring prostate cancer cells in a co-culture system in vitro. In vivo, the mesenchymal cells and prostate cancer cells were co-injected into subcutaneous sites in immune deficient rats. […] Therefore, a cell-based gene delivery system may be useful to pursue as potential therapy for metastatic cancer, particularly prostate cancer cells that have spread to bone.

[3] = system: Bone marrow cells isolated from mouse femur; experiment: Peptide binding to bone marrow cells in culture (Avidin-FITC); parameters: key to Localization of peptide binding: Marrow (cells in culture): ✓: Check marks indicate positive binding observed with FITC; −: a dash indicates a negative result; details: FITC
Method: (§3) For localization of peptide binding to cells and tissue sections, biotinylated peptides were synthesized. Fluorescein-isothiocyanate (FITC) labeled Avidin was used to localize the peptides on cells in culture and in tissue sections in vitro by epiluminescence microscopy. In addition, the biotinylated peptides were detected at concentrations as low as 1 μM in slot blots.
(§4) Bone marrow cells isolated from mouse femur were lifted with ethylenediaminetetraacetic acid (EDTA) and trypsin, resuspended, and allowed to attach on fibronectin-coated chamber slides for Avidin-FITC staining. […] The D1 cell is a multipotential mesenchymal stem-like line that was isolated from bone marrow and shown to have the characteristics of osteoprogenitor cells. This cell line has been well established and used successfully in several in vitro and in vivo studies in our laboratory. Peptide binding to human bone marrow endothelial cells (HBME) and bovine aortic endothelial cells (BAEC) in culture was also tested using the same procedure.

[4] = system: bovine aortic endothelial cells (BAEC); experiment: Peptide binding to BAEC in culture (Avidin-FITC); parameters: key: ✓: Check marks indicate positive binding observed with FITC; −: a dash indicates a negative result
Method: as §3, §4

[5] = system: Membrane and cytosol fractions from bovine aortic endothelial cells; experiment: Affinity chromatography of BAEC fractions on immobilized peptide; type: binding
Method: (§5) Membrane and cytosol fractions from human bone marrow endothelial cells and bovine aortic endothelial cells were prepared and used to identify the components from within these fractions that bind to the peptides using affinity chromatography). […] Cell surface nucleolin is present at higher concentrations in actively dividing cells and is down regulated in cells when they become quiescent. Nucleolin is the apparent cell surface receptor of E-coli intimin-gamma. Cell bound intimin has been proposed to trigger a host cell response similar to the extension of filipodia when cells bind to laminin. […] Table 3 provides a summary of peptide-binding partners (putative receptors) identified by affinity chromatography of cell lysates.

[6] = system: Membrane and cytosol fractions from human bone marrow endothelial cells; experiment: Affinity chromatography of HBME fractions on immobilized peptide; type: binding; parameters: key to Identification of binding partners by affinity chromatography: HBME: ✓: Check marks indicate positive binding observed with FITC; −: a dash indicates a negative result; details: cell lysates
Method: as §5
Peptide Affinity Column Chromatography: Peptides identified from the phage display experiments in mouse bone and bone marrow were synthesized with an additional three-residue glycine linker and an N-terminal lysine residue. The lysine residue was used to specifically link the peptides to a support. Cell membranes from BMECs were solubilized with triton X-100. The solubilized proteins were passed through the peptide affinity column (total volume, 500 μL) followed by extensive washes with buffer. Retained proteins were eluted either with 100 mM solution of the same peptide as that immobilized on the column or with a wash of 0.1 N HCl-Glycine, pH 2.2. The eluates were analyzed by SDS PAGE and proteins observed in the gels were identified by LC/MS/MS.

[7] = system: bone and marrow tissue sections (mouse femur, rib); experiment: Biotinylated peptide binding to bone/marrow tissue sections, Avidin-FITC fluorescence; details: biotinylated peptides; 1/50,000 dilution of Avidin-FITC
Method: Methods: Four-week old Swiss Webster mice were euthanized; the femurs were excised and decalcified in 0.25M EDTA in PBS solution for 5 days, and washed in PBS for 24 hours. The femoral shafts were obtained by cutting off the proximal and distal ends of the femur. The femoral shafts were placed in Tissue-Tek O.C.T. Compound (Sukura Finetek, Torrance, Calif.) and frozen at −20° C. overnight. Sections were cut at 10 μm serially with a cryomicrotome, rinsed with 1% BSA in PBS three times. To block non-specific reaction sections were incubated with Avidin/Biotin Blocking Kit (Vector Laboratories, Inc. Burlingame, Calif.) according to the manufacturer's instructions. Following another rinse with PBS, 150 μl 10 mM solution of each biotinylated peptide (L1, L2, L7, R1, R8) was added to the slides and incubated for 1 hour at room temperature. In negative controls, only PBS was added. After rewashes with 1% BSA, 150 μl of 1:50,000 dilution of Avidin-FITC was added to each slide and incubated overnight at 4° C.
The sections were washed with 1% BSA in PBS and mounted with Vectashield (Vector Laboratories Inc., Burlingame, Calif.). Fluorescence was visualized using a Nikon eclipse E600 microscope (Nikon, Melville, N.Y.) equipped with a 535 nm wavelength fluorescein filter. Images were obtained using a Sony DKC-5000 digital camera (Sony Electronics Inc.) and processed with Adobe Photoshop software (Adobe Systems Incorporated, San Jose, Calif.).
as §3
Cryosections of decalcified femurs harvested from 4 week BALB/c mice were incubated with biotinylated peptide and Avidin-FITC. […] The distribution of fluorescence throughout the marrow was uneven. […] In control slides incubated with PBS without peptide, none of the cells could be detected by fluorescence (not shown). […]

[8] = system: prostate cancer cells (CaP); experiment: Prostate cancer (CaP) cell adhesion to BMEC, cell line not distinguished; type: cell-based; details: 50 μM and 100 μM tested
Method: as §1, §2
This observation will be examined further and exploited by the aims of this proposal to identify the binding partners of nucleolin in prostate cancer cells as well as to investigate bone tropic peptides as potential inhibitors of prostate cancer metastasis.

Compound | PERCENT FREQUENCY (bone and bone marrow) [%] | PHAGE SEQUENCE FREQUENCY (number of times the sequence was found in a group of plaques) (bone and bone marrow) | Effect on adherent BAEC (Experiment 1) [1] | Effect on adhesion of C4-2 cells to BMEC (C4-2 cells) | Effect on adhesion of LNCaP cells to BMEC (LNCaP cells) | Histological appearance of repair tissue in the defect [2] | Effectiveness at stimulating osteogenesis and cortical bone repair [2] | Size of chimeric tumors (prostate cancer cells; mesenchymal cells and prostate cancer cells co-injected subcutaneously, prodrug treatment) | Serum PSA levels (prostate cancer cells; treated rats) | Localization of peptide binding: Marrow (cells in culture) [3] | Effect on adherent BAEC (Experiment 3) ([1]; 0.1M peptide, cells adherent about 6 hours) | Localization of peptide binding: BAEC [4] | Binding partner from BAEC lysates ([5]; biotinylated peptide immobilized on avidin-agarose) | Identification of binding partners by affinity chromatography: BAEC ([5]; cell lysates) | Identification of binding partners by affinity chromatography: HBME [6] | Binding to rib and long bone growth plate sections [7] | Concentrations at which peptide inhibits prostate cancer cell adhesion to BMEC [8]
ASP-SER-SER-ASN-PRO-ILE-PHE-TRP-ARG-PRO-SER-SER-GLY-GLY-GLY-SER (DSSNPIFWRPSSGGGS; listed as Homo sapiens) [Peptide L19] | 16.7 | 5/30 | no effect, with results similar to PBS | leaving the adhesion of the C4-2 cell line unaffected | strongly inhibited the less aggressive LNCaP cell | while some ossification and cortical bone regeneration has occurred, considerable amounts of gelfoam remains in the defect | virtually no stimulatory effect on osteogenesis |  |  |  |  |  |  |  |  |  | 
Nc1nc2c(ncn2COC(CO)CO)c(=O)[nH]1 [gencyclovir] |  |  |  |  |  |  |  | diminished in size | drop in serum PSA levels |  |  |  |  |  |  |  | 
GLN-ARG-SER-TRP-THR-LEU-ASP-SER-ALA-LEU-SER-MET-GLY-GLY-GLY-SER (QRSWTLDSALSMGGGS; listed as Homo sapiens) [Peptide L12] | 16.7 | 5/30 | the cells lifted and formed clusters that stained intensely |  |  |  | most effective at stimulating osteogenesis and cortical bone repair |  |  | ✓ | formed fewer clumps and considerably more debris | ✓ | vimentin was found to bind | ✓Vimentin | − |  | 
ALA-THR-TRP-SER-HIS-HIS-LEU-SER-SER-ALA-GLY-LEU-GLY-GLY-GLY-SER (ATWSHHLSSAGLGGGS; listed as Homo sapiens) [Peptide R3] | 34.5 | 10/29 | the cells had lifted completely and most of the cells disappeared from the surface of the slides, leaving a lot of cell debris | dose-dependent inhibition of CaP cell invasion for both cell lines | dose-dependent inhibition of CaP cell invasion for both cell lines |  | most effective at stimulating osteogenesis and cortical bone repair |  |  |  |  |  |  |  |  | no staining | at 100 μM only
